Ten compounds from ChEMBL document CHEMBL1201862, “PubChem BioAssay data set” (2004) can be followed below.

Assay in all cases: NCI anticancer screen, dose series, 48 h
The test system of experiment [1] is DLD-1.
For experiment [2], the system named is LXFL 529.
The subject of experiment [3] is XF498.
The test system of experiment [4] is SNB-78.
The test system of experiment [5] is KM-20L2.
Experiment [6] deals with M19-MEL.
Experiment [7] concerns DMS-114.
Experiment [8] deals with HOP-18.

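Five compound concentrations were applied to cells in 96-well plates for 48 hours; endpoints were derived by simple linear interpolation of the resulting dose-response curve. The concentration for 50% growth inhibition is given as GI50.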 Active and inactive are the calls of the source. Rule as the data show it: active = GI50 up to about 1.1 µM and inactive = higher. Some results are limits rather than exact numbers.

Take `COc1cc2c(cc1OC)C1Cc3cc(OC)c(OC)cc3C(C2)N1C`: the GI50 in experiment [1], in experiment [2], in experiment [3], in experiment [4] and in experiment [5] was > 100 µM (inactive) each time.
On to `CNS(=O)(=O)NNS(=O)(=O)c1ccccc1`, for which the GI50 in experiment [6], in experiment [1], in experiment [2], in experiment [3], in experiment [7] and in experiment [5] was > 100 µM (inactive) throughout. The GI50 in experiment [8] was > 100 µM (inactive).
Regarding `Cc1nc2c(s/c(=N\N)n2-c2ccccc2)c(=O)n1C`, the GI50 in experiment [6], in experiment [2], in experiment [3], in experiment [7], in experiment [4] and in experiment [5] was > 100 µM (inactive) in each case.
With `COc1ccc(C2=CN3CCC[C@H]3C=C2c2cc(O)c(OC)c(OC)c2)cc1OC`, the GI50 in experiment [6] is 0.00274 µM (active); in experiment [1], 0.00316 µM (active); in experiment [2], 0.00389 µM (active); in experiment [7] it was 0.00385 µM (active); in experiment [4] it was 0.00385 µM (active); in experiment [5], 0.00887 µM (active). The GI50 in experiment [8] was 0.00427 µM (active).
For the compound `O=C(OCCOCCOC(=O)c1c[nH]cc1-c1ccccc1)c1c[nH]cc1-c1ccccc1`, the GI50 was 18.7 µM (inactive) in experiment [6]; 24.8 µM (inactive) in experiment [1]; 21.8 µM (inactive) in experiment [2]; 19.9 µM (inactive) in experiment [3]; 13.8 µM (inactive) in experiment [7]; 19.3 µM (inactive) in experiment [4]. Further, in experiment [5], the GI50 was 21.9 µM (inactive).
With `C=C1C(C)C2C(Cc3ccccc3)NC(=O)C23OC(=O)/C=C\CC(=O)CCC(C)C/C=C/C3C1O` (stereo not given), the GI50 in experiment [6] is 4.3 µM (inactive); in experiment [1] it was 1.18 µM (inactive); in experiment [3], 0.287 µM (active); in experiment [7], 2.42 µM (inactive); in experiment [4] it was 0.36 µM (active); in experiment [5] it was 3.66 µM (inactive). For the same compound, the GI50 in experiment [8] is 0.326 µM (active).
Take `Cc1nn(C(=O)CC(=O)Nc2ccc(Cl)cc2)c(C)c1/N=N/c1ccccc1C(=O)O`: the GI50 in experiment [6], in experiment [1], in experiment [2], in experiment [7], in experiment [4] and in experiment [5] was > 100 µM (inactive) each time.
As to `CCO/C([O-])=C(\C(=O)c1ccccc1)[n+]1c(C)n(C)c2ccccc21`, the GI50 in experiment [6], in experiment [1], in experiment [2], in experiment [7], in experiment [4] and in experiment [5] was > 100 µM (inactive) each time. In addition, the GI50 in experiment [8] was > 100 µM (inactive).
On to `CC(=O)n1c2ccccc2c2nc3nc(Oc4ccc(C)cc4)c4ccccc4c3cc21`, for which the GI50 in experiment [6] was > 100 µM (inactive); in experiment [1], > 100 µM (inactive); in experiment [2] it was 97.9 µM (inactive); in experiment [7] it was > 100 µM (inactive); in experiment [4], 42.5 µM (inactive); in experiment [5] it was > 100 µM (inactive).
For the compound `CO[C@H]1[C@H](O)[C@H](O[C@H]2CC[C@@]3(C)[C@H](CC[C@@H]4[C@@H]3CC[C@]3(C)[C@@H](C5=CC(=O)OC5)CC[C@]43O)C2)O[C@@H](C)[C@@H]1O` [NERIIFOLIN], the GI50 is 0.00363 µM (active) in experiment [6]; 0.00184 µM (active) in experiment [1]; 0.00135 µM (active) in experiment [2]; 0.000138 µM (active) in experiment [7]; 0.000552 µM (active) in experiment [4]; 0.00311 µM (active) in experiment [5]. In addition, the GI50 in experiment [8] is 0.000476 µM (active).
